Experimental data: US20230107642A1 (Erasca, Inc., priority 2020, published 2023)

molecular target: T1, Cys12 of the KRAS 4B G12C protein (Homo sapiens, UniProt P01116, G12C); assay: In vitro covalent adduct formation (CAF) assay, LC-MS intact mass; type: binding; conditions: 10 uM compound, 60 min
T1 construct: This protein contained 188 amino acids in total, including an N-terminal 6-Histidine tag; made in house; host or cells: E. coli BL21
Description: This Example provides a protocol for assessing covalent adduct formation (CAF) between the compounds of the present application and KRAS.
In vitro covalent adduct formation assay: Covalent adduct formation (CAF) reactions between Cys12 of the KRAS 4B G12C protein and some of the compounds of Tables 1 to 4 were measured in vitro using liquid chromatography-mass spectrometry (LC-MS).
Recombinant Human KRAS 4B protein containing the G12C mutation was used in compound screening experiments. This protein contained 188 amino acids in total, including an N-terminal 6-Histidine tag, followed by a Tobacco Etch Virus (TEV) tag, followed by residues 1-169 of the native KRAS 4B sequence. The exact mass of the protein was 21,310 Da as determined by mass spectrometry. The full amino acid sequence is shown below: […]
The recombinant protein was expressed in E. coli BL21 cells and purified using affinity chromatography via a Ni-NTA column. Protein stocks were nucleotide-exchanged to >95% GDP, concentrated to 4 mg/mL, and stored at −80° C. in storage buffer (50 mM HEPES pH 7.4, 50 mM NaCl, 5 mM MgCl2, 1 mM DTT). Pure KRAS 4B G12C protein was diluted to a concentration of 5 μM in Tris Buffered Saline, pH 7.4. The compounds were dissolved in DMSO and added to the diluted protein to make a 10 μM concentration. The total DMSO concentration in the reaction was 4%. The reaction was mixed by pipetting and incubated at 22° C. for one hour. Aliquots of the reaction were taken over time and diluted 2:1 in 0.1% formic acid. The intact mass of the protein samples was measured by LC-MS using a QExactive+ mass spectrometer (Thermo Scientific). An amount of 500 ng total protein was injected onto a C8 reverse phase column, eluted with a seven-minute gradient of 30%-90% acetonitrile/0.1% formic acid, and analyzed for intact mass by the mass spectrometer. Adducts identified were confirmed to be within 1 Dalton of the expected mass, and the relative ratios of free:adduct protein were used to quantify the percentage of protein bound by the compound. CAF reactions were run in duplicate, with a typical variability of ±5%.

% CAF 10 uM @ 60 min | Compound
75.9% | C=CC(=O)N1[C@H](C)CN(c2nc(=O)n3c4c(c(-c5c(F)ccc6cnn(C)c56)c(C(F)(F)F)cc24)SC[C@@H]3COC)C[C@@H]1C (atropisomer, axis not shown) [Example 1406, (3S,10R)-7-((3S,5R)-4-acryloyl-3,5-dimethylpiperazin-1-yl)-10-(6-fluoro-1-methyl-1H-indazol-7-yl)-3-(methoxymethyl)-9-(trifluoromethyl)-2,3-dihydro-5H-[1,4]thiazino[2,3,4-ij]quinazolin-5-one]
96.7% | C=CC(=O)N1CCN(c2nc(=O)n3c4c(c(-c5c(F)cc(F)cc5F)c(C(F)(F)F)cc24)SC[C@@H]3COC)CC1 [Example 1379, (S)-7-(4-acryloylpiperazin-1-yl)-3-(methoxymethyl)-9-(trifluoromethyl)-10-(2,4,6-trifluorophenyl)-2,3-dihydro-5H-[1,4]thiazino[2,3,4-ij]quinazolin-5-one]
96.8% | [2H]C([2H])=C([2H])C(=O)N1[C@H](C)CN(c2nc(=O)n3c4c(c(-c5ccc(F)cc5)c(C(F)(F)F)cc24)SC[C@@H]3COC)C[C@@H]1C [Example 1366]
92.1% | C=CC(=O)N1C[C@H](C)N(c2nc(=O)n3c4c(c(-c5ccc(F)c(Cl)c5)c(C(F)(F)F)cc24)SC[C@@H]3COCOC)C[C@H]1C [Example 1363, (S)-7-((2S,5R)-4-acryloyl-2,5-dimethylpiperazin-1-yl)-10-(3-chloro-4-fluorophenyl)-3-((methoxymethoxy)methyl)-9-(trifluoromethyl)-2,3-dihydro-5H-[1,4]thiazino[2,3,4-ij]quinazolin-5-one]
74.6% | C=CC(=O)N1[C@H](C)CN(c2nc(=O)n3c4c(c(-c5ccc(F)c(Cl)c5)c(C(F)(F)F)cc24)SC[C@@H]3COCOC)C[C@@H]1C [Example 1359, (S)-7-((3S,5R)-4-acryloyl-3,5-dimethylpiperazin-1-yl)-10-(3-chloro-4-fluorophenyl)-3-((methoxymethoxy)methyl)-9-(trifluoromethyl)-2,3-dihydro-5H-[1,4]thiazino[2,3,4-ij]quinazolin-5-one]

Second part, the compound before the results:

Compound | % CAF 10 uM @ 60 min
C=CC(=O)N1CCN(c2nc(=O)n3c4c(c(-c5ccc(F)cc5F)c(C(F)(F)F)cc24)SC[C@@H]3CN2C[C@@H]3C[C@H]2CO3)CC1 (atropisomer, axis not shown) [Example 1305, (3S,10R)-3-(((1S,4S)-2-oxa-5-azabicyclo[2.2.1]heptan-5-yl)methyl)-7-(4-acryloylpiperazin-1-yl)-10-(2,4-difluorophenyl)-9-(trifluoromethyl)-2,3-dihydro-5H-[1,4]thiazino[2,3,4-ij]quinazolin-5-one] | 97.2%
C=CC(=O)N1[C@H](C)CN(c2nc(=O)n3c4c(c(-c5ccc(F)cc5)c(C(F)(F)F)cc24)SC[C@@H]3CN2CCN(CC)CC2)C[C@@H]1C [Example 1344, (S)-7-((3S,5R)-4-acryloyl-3,5-dimethylpiperazin-1-yl)-3-((4-ethylpiperazin-1-yl)methyl)-10-(4-fluorophenyl)-9-(trifluoromethyl)-2,3-dihydro-5H-[1,4]thiazino[2,3,4-ij]quinazolin-5-one] | 96%
C=CC(=O)N1[C@H](C)CN(c2nc(=O)n3c4c(c(-c5ccc(F)c(Cl)c5)c(C(F)(F)F)cc24)SC[C@@H]3CN2CCN(CC)CC2)C[C@@H]1C [Example 1373, (S)-7-((3S,5R)-4-acryloyl-3,5-dimethylpiperazin-1-yl)-10-(3-chloro-4-fluorophenyl)-3-((4ethylpiperazin-1-yl)methyl)-9-(trifluoromethyl)-2,3-dihydro-5H-[1,4]thiazino[2,3,4-ij]quinazolin-5-one] | 66.2%
C=CC(=O)N1[C@H](C)CN(c2nc(=O)n3c4c(c(-c5ccc(F)cc5F)c(C(F)(F)F)cc24)SC[C@@H]3CN2CCN(C3CC3)CC2)C[C@@H]1C (atropisomer, axis not shown) [Example 1346, (3S,10R)-7-((3S,5R)-4-acryloyl-3,5-dimethylpiperazin-1-yl)-3-((4-cyclopropylpiperazin-1-yl)methyl)-10-(2,4-difluorophenyl)-9-(trifluoromethyl)-2,3-dihydro-5H-[1,4]thiazino[2,3,4-ij]quinazolin-5-one] | 96.9%
C=CC(=O)N1C2COCC1CN(c1nc(=O)n3c4c(c(-c5ccc(F)cc5)c(C(F)(F)F)cc14)SC[C@@H]3COC)C2 [Example 1384, (3S)-7-(9-acryloyl-3-oxa-7,9-diazabicyclo[3.3.1]nonan-7-yl)-10-(4-fluorophenyl)-3-(methoxymethyl)-9-(trifluoromethyl)-2,3-dihydro-5H-[1,4]thiazino[2,3,4-ij]quinazolin-5-one] | 77.8%
C=CC(=O)N1C2CCC1CN(c1nc(=O)n3c4c(c(-c5cc(Cl)c(F)cc5F)c(C(F)(F)F)cc14)SCC1(COC1)C3)C2 [Example 1401, (R)-8′-((1R,5S)-8-acryloyl-3,8-diazabicyclo[3.2.1]octan-3-yl)-11′-(5-chloro-2,4-difluorophenyl)-10′-(trifluoromethyl)-2′H,4′H,6′H-spiro[oxetane-3,3′-[1,4]thiazepino[2,3,4-ij]quinazolin]-6′-one] | 76.6%
C=CC(=O)N1CCN(c2nc(=O)n3c4c(c(-c5cc(Cl)c(F)cc5F)c(C(F)(F)F)cc24)SCC2(COC2)C3)CC1 (atropisomer, axis not shown) [Example 1397, (S)-8′-(4-acryloylpiperazin-1-yl)-11′-(5-chloro-2,4-difluorophenyl)-10′-(trifluoromethyl)-2′H,4′H,6′H-spiro[oxetane-3,3′-[1,4]thiazepino[2,3,4-ij]quinazolin]-6′-one] | 78.2%
C=CC(=O)N1[C@H](C)CN(c2nc(=O)n3c4c(c(-c5ccc(F)cc5F)c(C(F)(F)F)cc24)SC[C@@H]3CN2C[C@@H]3C[C@H]2CO3)C[C@@H]1C (atropisomer, axis not shown) [Example 1300, (3S,10S)-3-(((1S,4S)-2-oxa-5-azabicyclo[2.2.1]heptan-5-yl)methyl)-7-((3S,5R)-4-acryloyl-3,5-dimethylpiperazin-1-yl)-10-(2,4-difluorophenyl)-9-(trifluoromethyl)-2,3-dihydro-5H-[1,4]thiazino[2,3,4-ij]quinazolin-5-one] | 90.8%

same assay, conditions: 10 uM compound, 60 min incubation

% CAF 10 uM @ 60 min | Compound
85% | C=CC(=O)N1CCN(c2nc(=O)n3c4c(c(-c5cc(Cl)c(F)cc5F)c(C(F)(F)F)cc24)SC[C@@H]3COC)CC1 (atropisomer, axis not shown) [Example 1108, (3S,10S)-7-(4-acryloylpiperazin-1-yl)-10-(5-chloro-2,4-difluorophenyl)-3-(methoxymethyl)-9-(trifluoromethyl)-2,3-dihydro-5H-[1,4]thiazino[2,3,4-ij]quinazolin-5-one]
74.3% | C=CC(=O)N1C[C@H](C)N(c2nc(=O)n3c4c(c(-c5cc(Cl)c(F)cc5F)c(C(F)(F)F)cc24)SCC2(COC2)C3)C[C@H]1C [Example 1122, 8′-((2S,5R)-4-acryloyl-2,5-dimethylpiperazin-1-yl)-11′-(5-chloro-2,4-difluorophenyl)-10′-(trifluoromethyl)-2′H,4′H,6′H-spiro[oxetane-3,3′-[1,4]thiazepino [2,3,4-ij]quinazolin]-6′-one]

same assay, conditions: 10 μM compound, after 1 hour

CAF (% after 1 hour) | Compound
95% | C=CC(=O)N1[C@H](C)CN(c2nc(=O)n3c4c(c(-c5ccc(F)cc5)c(C(F)(F)F)cc24)SC[C@@H](OCC)C3)C[C@@H]1C [Example 1203, (S)-8-((3S,5R)-4-acryloyl-3,5-dimethylpiperazin-1-yl)-3-ethoxy-11-(4-fluorophenyl)-10-(trifluoromethyl)-3,4-dihydro-2H,6H-[1,4]thiazepino[2,3,4-ij]quinazolin-6-one]

same assay, conditions: after 60 min

CAF (% binding after 60 min) | Compound
95% | C=CC(=O)N1[C@H](C)CN(c2nc(=O)n3c4c(c(-c5ccc(F)cc5F)c(C(F)(F)F)cc24)SC[C@H](OCCOC)C3)C[C@@H]1C [Example 1026, (3R)-8-((3S,5R)-4-acryloyl-3,5-dimethylpiperazin-1-yl)-11-(2,4-difluorophenyl)-3-(2-methoxyethoxy)-10-(trifluoromethyl)-3,4-dihydro-2H,6H-[1,4]thiazepino[2,3,4-ij]quinazolin-6-one]
96% | C=CC(=O)N1CCN(c2nc(=O)n3c4c(c(-c5ccc(F)cc5)c(C(F)(F)F)cc24)SC[C@H](OC)C3)CC1 [Example 1037, (R)-8-(4-acryloylpiperazin-1-yl)-11-(4-fluorophenyl)-3-methoxy-10-(trifluoromethyl)-3,4-dihydro-2H,6H-[1,4]thiazepino[2,3,4-ij]quinazolin-6-one]
